Reference: PMC3759900, “Acetylcholinesterase Reactivators (HI-6, Obidoxime, Trimedoxime, K027, K075, K127, K203, K282): Structural Evaluation of Human Serum Albumin Binding and Absorption Kinetics” (International Journal of Molecular Sciences, 2013)

Key:
[1] = molecular target: Human Serum Albumin (HSA) (Homo sapiens, UniProt P02768); assay: HSA binding by ultrafiltration (Centrifree) and HPLC; settings: HSA 45 g/L in phosphate buffer saline, 90 min at 37 °C, mean of three independent measurements
[2] = Pharmacokinetic study, plasma concentration after i.m. injection (HPLC); settings: male Wister rats, description of plasma kinetic curves

Human Serum Albumin (HSA), sequence (P02768 25-609): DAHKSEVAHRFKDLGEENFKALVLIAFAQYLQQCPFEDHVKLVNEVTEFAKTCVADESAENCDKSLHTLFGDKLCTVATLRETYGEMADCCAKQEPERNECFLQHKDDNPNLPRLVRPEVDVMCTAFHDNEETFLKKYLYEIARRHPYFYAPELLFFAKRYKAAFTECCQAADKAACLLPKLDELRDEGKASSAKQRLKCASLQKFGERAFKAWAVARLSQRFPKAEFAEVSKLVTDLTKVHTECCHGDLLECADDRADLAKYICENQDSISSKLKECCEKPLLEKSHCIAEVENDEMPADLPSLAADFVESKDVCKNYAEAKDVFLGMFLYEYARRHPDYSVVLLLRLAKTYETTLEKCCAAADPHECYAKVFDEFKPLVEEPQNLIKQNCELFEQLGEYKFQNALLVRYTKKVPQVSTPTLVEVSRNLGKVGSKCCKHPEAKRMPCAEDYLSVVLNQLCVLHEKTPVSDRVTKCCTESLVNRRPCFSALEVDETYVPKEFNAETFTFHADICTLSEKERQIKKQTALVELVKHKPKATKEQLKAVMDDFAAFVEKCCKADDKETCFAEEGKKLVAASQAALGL

SMILES	Binding to Human Serum Albumin (HSA) [1] [%]	Elimination from blood (kinetic curve profile) [2]
ON=Cc1cc[n+](C/C=C\C[n+]2ccc(C=NO)cc2)cc1 [K282]	12	
NC(=O)c1cc[n+](CCOCC[n+]2ccc(C=NO)cc2)cc1 [K127]	4	
O/N=C/c1cc[n+](CCC[n+]2ccc(/C=N/O)cc2)cc1 [Trimedoxime, trimedoxime]	6	slow elimination from the blood
O/N=C/c1cc[n+](C/C=C/C[n+]2ccc(/C=N/O)cc2)cc1 [K075]	10	
NC(=O)c1cc[n+](CCC[n+]2ccc(/C=N/O)cc2)cc1 [K027]	5	
NC(=O)c1cc[n+](COC[n+]2ccccc2/C=N/O)cc1 [HI-6]	1	slow elimination from the blood
NC(=O)c1cc[n+](C/C=C/C[n+]2ccc(/C=N/O)cc2)cc1 [K203]	15	
O/N=C/c1cc[n+](COC[n+]2ccc(/C=N/O)cc2)cc1 [Obidoxime, obidoxime]		relatively fast elimination
